Assays:
Pfeiffer cells = test: Cell proliferation test (Cell counting kit-8, 6 days); assay type: cell-based; conditions: Pfeiffer (CRL-2632) cells, culture for 6 days, viable cells by Cell counting kit-8
Description: The used cell lines Pfeiffer (CRL-2632), suDHL-6 (CRL-2959) and suDHL-10 (CRL-2963) were purchased from American Type Culture Collection (ATCC). All cell lines were cultured in RPMI-1640 medium (Gibco) containing 10% fetal bovine serum (Gibco). The cultured cells were collected by centrifugation and the cell density was measured on a CounterStar counter. Appropriate number of cells were then seeded in a 96-well culture plate and incubated overnight. Compounds to be tested were diluted by 8 gradient points in a ratio of 1:3 and added into the corresponding wells. After continuing to culture for 6 days, the number of viable cells was measured with Cell counting kit-8, and the absorbance value was read on Tecan infinite pro. The IC50 was calculated by fitting a four-parameter model in the XLfit software.

EZH2 Y641F = EZH2 Y641F (Homo sapiens (Human), UniProt Q15910, Y641F); test: In vitro methyltransferase activity test (LANCE Ultra); assay type: biochemical; conditions: Recombinant PRC2 (EZH2-Y641F), 2.5 μM SAM/250 nM H3(1-50)K27me1, 3 hours, room temperature
EZH2 Y641F, sequence (Q15910 whole entry Y641F): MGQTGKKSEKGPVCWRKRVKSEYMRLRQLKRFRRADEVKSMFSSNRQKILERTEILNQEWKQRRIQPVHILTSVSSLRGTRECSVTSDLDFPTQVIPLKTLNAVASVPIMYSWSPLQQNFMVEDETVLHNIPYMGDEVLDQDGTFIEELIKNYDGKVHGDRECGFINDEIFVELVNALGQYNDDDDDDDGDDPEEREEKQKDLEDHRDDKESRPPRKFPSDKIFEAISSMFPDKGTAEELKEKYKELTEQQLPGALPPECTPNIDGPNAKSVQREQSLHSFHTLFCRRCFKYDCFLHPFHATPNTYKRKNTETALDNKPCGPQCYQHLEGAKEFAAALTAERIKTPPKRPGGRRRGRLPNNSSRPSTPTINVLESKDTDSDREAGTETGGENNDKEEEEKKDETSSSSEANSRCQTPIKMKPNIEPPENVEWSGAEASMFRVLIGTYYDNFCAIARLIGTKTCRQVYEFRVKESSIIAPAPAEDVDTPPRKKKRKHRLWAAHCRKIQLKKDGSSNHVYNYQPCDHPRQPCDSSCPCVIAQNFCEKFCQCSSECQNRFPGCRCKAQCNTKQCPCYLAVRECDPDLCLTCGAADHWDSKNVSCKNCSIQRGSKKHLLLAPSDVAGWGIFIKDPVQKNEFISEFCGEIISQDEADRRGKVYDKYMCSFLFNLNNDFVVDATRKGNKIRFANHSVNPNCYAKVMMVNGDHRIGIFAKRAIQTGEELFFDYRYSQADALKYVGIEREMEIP
EZH2 Y641F, sequence (O75530 whole entry partner): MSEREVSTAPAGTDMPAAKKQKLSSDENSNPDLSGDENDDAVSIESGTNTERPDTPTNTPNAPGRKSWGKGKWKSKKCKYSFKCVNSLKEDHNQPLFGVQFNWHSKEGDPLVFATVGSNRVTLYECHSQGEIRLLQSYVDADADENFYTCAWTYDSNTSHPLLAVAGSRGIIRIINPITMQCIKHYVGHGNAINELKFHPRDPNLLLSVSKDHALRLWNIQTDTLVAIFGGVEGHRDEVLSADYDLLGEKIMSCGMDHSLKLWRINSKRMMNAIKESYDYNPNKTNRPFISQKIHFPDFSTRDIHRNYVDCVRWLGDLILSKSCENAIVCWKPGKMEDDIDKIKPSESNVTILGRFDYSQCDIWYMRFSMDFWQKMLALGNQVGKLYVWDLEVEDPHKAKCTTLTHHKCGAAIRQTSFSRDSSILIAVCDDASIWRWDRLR
EZH2 Y641F, sequence (Q15022 whole entry partner): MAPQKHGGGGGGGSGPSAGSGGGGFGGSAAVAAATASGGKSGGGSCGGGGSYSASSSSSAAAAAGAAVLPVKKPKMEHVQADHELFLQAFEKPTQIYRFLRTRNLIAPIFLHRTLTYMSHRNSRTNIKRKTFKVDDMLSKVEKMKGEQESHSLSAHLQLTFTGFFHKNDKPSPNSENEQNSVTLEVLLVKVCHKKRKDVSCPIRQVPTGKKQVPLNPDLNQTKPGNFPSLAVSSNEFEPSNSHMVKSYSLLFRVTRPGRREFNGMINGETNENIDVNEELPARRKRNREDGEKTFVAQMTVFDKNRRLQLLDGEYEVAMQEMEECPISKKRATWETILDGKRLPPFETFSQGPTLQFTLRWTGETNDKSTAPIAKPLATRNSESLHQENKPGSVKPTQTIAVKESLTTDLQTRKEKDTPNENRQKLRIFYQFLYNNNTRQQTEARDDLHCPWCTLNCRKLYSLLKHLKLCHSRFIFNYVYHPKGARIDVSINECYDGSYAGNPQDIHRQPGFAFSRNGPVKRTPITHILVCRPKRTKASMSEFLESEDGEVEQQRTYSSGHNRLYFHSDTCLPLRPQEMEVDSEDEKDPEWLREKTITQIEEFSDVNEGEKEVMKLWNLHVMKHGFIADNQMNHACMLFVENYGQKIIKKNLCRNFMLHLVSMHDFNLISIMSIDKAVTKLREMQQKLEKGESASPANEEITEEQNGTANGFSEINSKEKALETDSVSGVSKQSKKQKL
EZH2 Y641F, sequence (Q09028 whole entry partner): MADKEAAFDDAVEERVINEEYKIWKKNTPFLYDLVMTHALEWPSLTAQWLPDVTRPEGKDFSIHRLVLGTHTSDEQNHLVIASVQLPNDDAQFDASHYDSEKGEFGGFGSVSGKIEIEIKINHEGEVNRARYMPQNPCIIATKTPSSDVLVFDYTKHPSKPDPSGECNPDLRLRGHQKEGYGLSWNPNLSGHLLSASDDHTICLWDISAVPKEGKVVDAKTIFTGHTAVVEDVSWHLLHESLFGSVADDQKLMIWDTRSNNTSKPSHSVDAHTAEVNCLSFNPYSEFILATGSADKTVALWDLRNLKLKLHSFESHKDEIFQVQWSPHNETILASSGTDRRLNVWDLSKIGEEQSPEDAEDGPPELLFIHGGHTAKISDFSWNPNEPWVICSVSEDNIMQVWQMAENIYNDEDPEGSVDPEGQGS
EZH2 Y641F, sequence (Q6ZN18 whole entry partner): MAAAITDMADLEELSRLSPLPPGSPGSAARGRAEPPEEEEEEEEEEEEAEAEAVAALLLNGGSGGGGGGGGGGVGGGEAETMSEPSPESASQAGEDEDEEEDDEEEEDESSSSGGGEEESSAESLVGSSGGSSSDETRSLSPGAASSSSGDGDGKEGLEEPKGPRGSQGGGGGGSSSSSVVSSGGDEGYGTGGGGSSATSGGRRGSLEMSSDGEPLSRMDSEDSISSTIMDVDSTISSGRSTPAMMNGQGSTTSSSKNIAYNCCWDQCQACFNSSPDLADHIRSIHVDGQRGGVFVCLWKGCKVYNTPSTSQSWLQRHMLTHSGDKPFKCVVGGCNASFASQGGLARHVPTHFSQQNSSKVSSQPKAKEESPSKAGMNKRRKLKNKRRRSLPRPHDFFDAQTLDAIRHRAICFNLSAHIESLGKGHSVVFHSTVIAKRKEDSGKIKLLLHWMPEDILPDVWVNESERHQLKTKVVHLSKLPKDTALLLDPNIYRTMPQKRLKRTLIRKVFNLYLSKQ
Description: The detection system uses LANCEUltra system (Perkinelmer company). […] And then a buffer [20 mM Tris pH8.5, 2 mM MgCl2, 0.01% Tween-20, 1 mM TCEP] containing 2.5 μM SAM/250 nM H3 (1-50)K27me1 premixtures was added, thus the enzyme reaction was started at room temperature. After reacting for 3 hours, a test solution premixed with PLL, detection antibody and Ulight was added, and reacted for 1h at room temperature, then the fluorescence value was read on a Tecan infinite pro. IC50 was calculated by fitting a four-factor model in the XLfit software.

Row | IC50 (EZH2 Y641F) [nM] | SMILES | IC50 (Pfeiffer cells) [nM] | IC50 (Pfeiffer cells; Homo sapiens, 144 h) [nM]
1 | 22 | C=CCC1(S(=O)(=O)n2cc(C)c3c(C(=O)NCc4c(C)cc(C)[nH]c4=O)cc(-c4ccc(CN(C)C)cc4)cc32)CC1 [Compound G-4] |  | 
2 | 33 | C=CCC1(S(=O)(=O)n2cc(C)c3c(C(=O)NCc4c(C)cc(C)[nH]c4=O)cc(-c4cccnc4)cc32)CC1 [Compound G-7] | 380 | 
3 | 40 | C=CCC1(S(=O)(=O)n2cc(C)c3c(C(=O)NCc4c(C)cc(C)[nH]c4=O)cc(-c4ccc(N(C)C)nc4)cc32)CC1 [Compound G-8] | 327 | 
4 | 35 | C=CCC1(S(=O)(=O)n2cc(C)c3c(C(=O)NCc4c(C)cc(C)[nH]c4=O)cc(-c4ccc(N)nc4)cc32)CC1 [Compound G-9] | 450 | 
5 | 13 | C=CCC1(S(=O)(=O)n2cc(C)c3c(C(=O)NCc4c(C)cc(C)[nH]c4=O)cc(-c4cnc(N5CCN(C)CC5)nc4)cc32)CC1 [Compound G-13] | 75 | 
6 | 25 | C=CCC1(S(=O)(=O)n2cc(C)c3c(C(=O)NCc4c(C)cc(C)[nH]c4=O)cc(-c4ccc(CN(C)C)cc4F)cc32)CC1 [Compound G-15] | 219 | 
7 | 9 | C=CCC1(S(=O)(=O)n2cc(C)c3c(C(=O)NCc4c(OC)cc(C)[nH]c4=O)cc(-c4cnc(N5CC(F)C5)nc4)cc32)CC1 [Compound G-30] | 97 | 
8 | 16 | C=CCC1(S(=O)(=O)n2cc(C)c3c(C(=O)NCc4c(OC)cc(C)[nH]c4=O)cc(-c4ccc(N)nc4)cc32)CC1 [Compound G-36] | 85 | 
9 | 26 | C=CCC1(S(=O)(=O)n2cc(C)c3c(C(=O)NCc4c(OC)cc(C)[nH]c4=O)cc(N4CCN(C)CC4)cc32)CC1 [Compound G-69] |  | 
10 | 460 | C=CCC1(S(=O)(=O)N2CCc3c(C(=O)NCc4c(C)cc(C)[nH]c4=O)cc(-c4ccc(N5CCN(C)CC5)nc4)cc32)CC1 [Compound G-76] | 2590 | 

The next lines start with the compound.

Row | SMILES | IC50 (EZH2 Y641F) [nM] | IC50 (Pfeiffer cells) [nM] | IC50 (Pfeiffer cells; Homo sapiens, 144 h) [nM]
11 | C=CCC1(S(=O)(=O)n2cc(C)c3c(C(=O)NCc4c(C)cc(C)[nH]c4=O)cc(-c4ccc(CCN5CCOCC5)nc4)cc32)CC1 [Compound G-3] | 28 | 300 | 
12 | C=CCC1(S(=O)(=O)n2cc(C)c3c(C(=O)NCc4c(C)cc(C)[nH]c4=O)cc(-c4ccc(OCCN(C)C)cc4)cc32)CC1 [Compound G-5] | 17 | 429 | 
13 | C=CCC1(S(=O)(=O)n2cc(C)c3c(C(=O)NCc4c(C)cc(C)[nH]c4=O)cc(-c4ccc(CN(C)C)cc4)cc32)CC1 [Compound G-6] | 19 | 352 | 
14 | C=CCC1(S(=O)(=O)n2cc(C)c3c(C(=O)NCc4c(C)cc(C)[nH]c4=O)cc(-c4ccc(C#N)nc4)cc32)CC1 [Compound G-10] | 41 |  | 
15 | C=CCC1(S(=O)(=O)n2cc(C)c3c(C(=O)NCc4c(C)cc(C)[nH]c4=O)cc(-c4ccc(OCCCN(C)C)cc4)cc32)CC1 [Compound G-11] | 32 |  | 
16 | C=CCC1(S(=O)(=O)n2cc(C)c3c(C(=O)NCc4c(C)cc(C)[nH]c4=O)cc(-c4ccc(N5CCOCC5)nc4)cc32)CC1 [Compound G-12] | 58 | 485 | 
17 | C=CCC1(S(=O)(=O)n2cc(OC)c3c(C(=O)NCc4c(C)cc(C)[nH]c4=O)cc(-c4ccc(N5CCN(C)CC5)nc4)cc32)CC1 [Compound G-14] | 5 | 27 | 
18 | C=CCC1(S(=O)(=O)n2cc(C)c3c(C(=O)NCc4c(C)cc(C)[nH]c4=O)cc(-c4ccc(CN(C)C)c(F)c4)cc32)CC1 [Compound G-16] | 23 | 335 | 
19 | C=CCC1(S(=O)(=O)n2cc(C)c3c(C(=O)NCc4c(C)cc(C)[nH]c4=O)cc(-c4ccc(CN(C)C)cc4F)cc32)CC1 [Compound G-18] | 42 | 368 | 
20 | C=CCC1(S(=O)(=O)n2cc(C)c3c(C(=O)NCc4c(C)cc(C)[nH]c4=O)cc(-c4ccc(F)c(CN(C)C)c4)cc32)CC1 [Compound G-21] | 37 |  | 
21 | C=CCC1(S(=O)(=O)n2cc(C)c3c(C(=O)NCc4c(C)cc(C)[nH]c4=O)cc(-c4cnc(N5CC(F)C5)nc4)cc32)CC1 [Compound G-24] | 32 | 60 | 
22 | C=CCC1(S(=O)(=O)n2cc(C)c3c(C(=O)NCc4c(OC)cc(C)[nH]c4=O)cc(-c4ccc(CN(C)C)cc4)cc32)CC1 [Compound G-32] | 8 | 79 | 
23 | Cc1cc(C)c(CNC(=O)c2cc(-c3ccc(N4CCN(C)CC4)nc3)cc3c2CCN3S(=O)(=O)C(C)C)c(=O)[nH]1 [Compound G-47, N-((4,6-dimethyl-2-oxo-1,2-dihydropyridin-3-yl)methyl)-1-(isopropylsulfonyl)-6-(6-(4-methylpiperazin-1-yl)pyridin-3-yl)dihydroindole-4-carboxamide] | 160 | 2040 | 
24 | C=CCC1(S(=O)(=O)n2cc(C)c3c(C(=O)NCc4c(C)cc(C)[nH]c4=O)cc(-c4ccc(N5CCN(C(C)C)CC5)nc4)cc32)CC1 [Compound G-48, 1-(1-allylcyclopropylsulfonyl)-N-((4,6-dimethyl-2-oxo-1,2-dihydropyridin-3-yl)methyl)-6-(6-(4-isopropylpiperazin-1-yl)pyridin-3-yl)-3-methyl-1H-indole-4-carboxamide] | 28 |  | 211
25 | C=CCC1(S(=O)(=O)n2cc(C)c3c(C(=O)NCc4c(C)cc(C)[nH]c4=O)cc(-c4cnc(N5CCNCC5)nc4)cc32)CC1 [Compound G-65] | 17 | 171 | 
26 | C=CCC1(S(=O)(=O)n2cc(C)c3c(C(=O)NCc4c(OC)cc(C)[nH]c4=O)cc(-c4cnc(N5CCN(C(C)C)CC5)nc4)cc32)CC1 [Compound G-67] | 7 |  | 22
27 | C=CCC1(S(=O)(=O)n2cc(C)c3c(C(=O)NCc4c(OC(F)F)cc(C)[nH]c4=O)cc(-c4ccc(N5CCN(C)CC5)nc4)cc32)CC1 [Compound G-68] | 34 | 152 | 
28 | C=CCC1(S(=O)(=O)N2CC(C)c3c(C(=O)NCc4c(C)cc(C)[nH]c4=O)cc(-c4ccc(CN(C)C)cc4)cc32)CC1 (centres unmarked) [Compound G-75] | 280 | 1840 | 
29 | C=CCC1(S(=O)(=O)N2CC(C)c3c(C(=O)NCc4c(C)cc(C)[nH]c4=O)cc(-c4ccc(N5CCN(C)CC5)nc4)cc32)CC1 (centres unmarked) [Compound G-77] | 147 | 1530 | 
30 | C=CCC1(S(=O)(=O)n2nc(C(F)F)c3c(C(=O)NCc4c(C)cc(C)[nH]c4=O)cc(-c4ccc(N5CCN(C)CC5)nc4)cc32)CC1 [Compound G-78] | 1420 | 2520 | 
31 | C=CCC1(S(=O)(=O)n2nc(C)c3c(C(=O)NCc4c(C)cc(C)[nH]c4=O)cc(-c4ccc(N5CCN(C)CC5)nc4)cc32)CC1 [Compound G-79] | 585 | 2820 | 
32 | C#CCCS(=O)(=O)n1cc(C)c2c(C(=O)NCc3c(OC)cc(C)[nH]c3=O)cc(-c3ccc(N4CCN(C)CC4)nc3)cc21 [Compound G-81] | 196 | 3800 | 
